According to patent US7084178B2, “Antiamyloid phenylsulfonamides: N-cycloalkylcarboxamides derivatives” (Bristol-Myers Squibb Company, priority 2003, dated 2006):

Test system: γ-secretase
Test: Competitive in vitro binding assay with [3H]-Compound A and membranes from THP-1 cells
Settings: displacement of [3H]-Compound A, THP-1 cell membranes, 23° C., 1.3 hr; read-out: Binding affinity (IC50 in nM)
Source text: Competitive in vitro binding assays can be used to identify compounds that inhibit γ-secretase activity. For example, [^3H]-Compound A can be used for binding assays with membranes from THP-1 cells (Seiffert, D.; Bradley, J. et al., J. Biol. Chem. 2000, 275, 34086–34091). Compound A is (2R,3S) N1-[(3S)-hexahydro-1-(3-phenoxybenzyl)-2-oxo-1H-azepin-3-yl]-2-(2methylpropyl)-3-(propyl)-butanediamide, which is described in U.S. patent U.S. Pat. No. 6,331,408 (Dec. 18, 2001); PCT Publication WO 00/28331; PCT Publication WO 00/07995; and Seiffert, D., Bradley, J. et al., J. Biol. Chem. 2000, 275. 34086–34091.
To evaluate the compounds of this invention using this assay, THP-1 cells were grown in spinner cultures in RPMI 1640 containing L-glutamine and 10 μM β-mercaptoethanol to a density of 5×10^5 cells/ml. Cells were harvested by centrifugation and cell pellets were quick frozen in dry ice/ethanol and stored at −70° C. prior to use. The pellets of approximately 2×10^4 THP-1 cells were homogenized using a Brinkman Polytron at setting 6 for 10 sec. The homogenate was centrifuged at 48,000×g for 12 min, and the resulting pellet was washed by repeating the homogenization and centrifugation. The final cell pellet was resuspended in buffer to yield a protein concentration of approximately 0.5 mg/ml. Assays were initiated by the addition of 150 μl of membrane suspension to 150 μl of assay buffer containing 0.064 μCi of radioligand and various concentrations of unlabeled compounds. Binding assays were performed in duplicate in polypropylene 96-well plates in a final volume of 0.3 ml containing 50 mM Hepes, pH 7.0, and 5% dimethyl sulfoxide. Nonspecific binding was defined using incubations with 300 nM compound A (Seiffert, D., Bradley, J. et al., J. Biol. Chem. 2000, 275, 34086–34091). After incubating at 23° C. for 1.3 hr, bound ligand was separated from free radioligand by filtration over GFF glass fiber filters presoaked in 0.3% ethyleneimine polymer solution. Filters were washed three times with 0.3 ml of ice cold phosphate-buffered saline, pH 7.0, containing 0.1% Triton X-100. Filter-bound radioactivity was measured by scintillation counting. IC50 values were then determined and used to calculate Ki values using the Cheng-Prusoft correction for IC50 values.
The compounds of this invention were evaluated in the assay described above, as well as with other evaluation methods, and found to be inhibitors of γ-secretase. In the table, an inhibitory concentration (IC50) of less than or equal to 50 nM is represented by +++; between 50 nM and 500 nM by ++; between 500 nM and 10000 nM by +.

First: CCNC(=O)c1ccc(CN([C@@H]2CCC[C@H]2C(N)=O)S(=O)(=O)c2ccc(Cl)cc2)cc1 [Example 32, 4-[[(1R,2R)-(2-Carbamoyl-cyclopentyl)-(4-chlorobenzenesulfonyl)-amino]-methyl]-N-ethyl-benzamide]
Second: CCNC(=O)c1ccc(CN([C@@H]2CCC[C@@H]2C(N)=O)S(=O)(=O)c2ccc(Cl)cc2)cc1 [Example 31, 4-[[(1R,2S)-(2-Carbamoyl-cyclopentyl)-(4-chlorobenzenesulfonyl)-amino]-methyl]-N-ethyl-benzamide]
The IC50 of the first is higher: 500 to 10000 nM for the first, 50 to 500 nM for the second. The second is the more potent here.

First: NC(=O)[C@@H]1CCCCC[C@@H]1N(Cc1ccc(-n2cccn2)cc1)S(=O)(=O)c1ccc(Cl)cc1 (relative stereo) [Example 23, cis-2-[(4-Chlorobenzenesulfonyl)-(4-pyrazol-1-yl-benzyl)-amino]-cycloheptanecarboxylic acid amide]
Second: COC(=O)c1ccc(CN([C@@H]2CCCCC[C@@H]2C(N)=O)S(=O)(=O)c2ccc(Cl)cc2)cc1 (relative stereo) [Example 20, cis-4-[[(2-Carbamoyl-cycloheptyl)-(4-chlorobenzenesulfonyl)-amino]-methyl]-benzoic acid methyl ester]
The IC50 of the first is higher: 500 to 10000 nM for the first, 50 to 500 nM for the second.

`COC(=O)c1ccc(CN([C@@H]2CCCC[C@@H]2C(N)=O)S(=O)(=O)c2ccc(Cl)cc2)cc1` [Example 1, 4-[[(1R,2S)-(2-Carbamoyl-cyclohexyl)-(4-chlorobenzenesulfonyl)-amino]-methyl]-benzoic acid methyl ester] and `CCNC(=O)c1ccc(CN([C@H]2CCCC[C@@H]2C(N)=O)S(=O)(=O)c2ccc(Cl)cc2)cc1` [Example 29, 4-[[(1S,2S)-(2-Carbamoyl-cyclohexyl)-(4-chlorobenzenesulfonyl)-amino]-methyl]-N-ethyl benzamide] cannot be ordered by IC50: no more than 50 nM for the first, 50 to 500 nM for the second.

First: CCNC(=O)c1ccc(CN([C@@H]2CCCC[C@@H]2C(N)=O)S(=O)(=O)c2ccc(Cl)cc2)cc1 [Example 28, 4-[[(1R,2S)-(2-Carbamoyl-cyclohexyl)-(4-chlorobenzenesulfonyl)-amino]-methyl]-N-ethyl benzamide]
Second: CCNC(=O)c1ccc(CN([C@@H]2CCCC[C@H]2C(N)=O)S(=O)(=O)c2ccc(Cl)cc2)cc1 [Example 30, 4-[[(1R,2R)-(2-Carbamoyl-cyclohexyl)-(4-chlorobenzenesulfonyl)-amino]-methyl]-N-ethyl benzamide]
The IC50 of the first is higher: 500 to 10000 nM for the first, 50 to 500 nM for the second. The second is the more potent here.

In the case of `CCNC(=O)c1ccc(CN([C@@H]2CCCC[C@@H]2C(N)=O)S(=O)(=O)c2ccc(Cl)cc2)cc1` [Example 2, 4-[[(1R,2S)-(2-Carbamoyl-cyclohexyl)-(4-chlorobenzenesulfonyl)-amino]-methyl]-N-ethyl-benzamide], the IC50 is reported as no more than 50 nM.

Test system: Aβ formation in H4 cells stably transfected to overexpress the HPLAP-APP fusion protein
Test: Inhibition of β-amyloid peptide formation in human H4 cells
Assay type: cell-based
Settings: H4 cells overexpressing HPLAP-APP, 18 hrs at 37° C.
Experimental: γ-Secretase inhibitors can also be evaluated using in vitro assays based on the inhibition of Aβ formation in cultured cells. Cultured human cell lines, such as HEK293 and H4 cells, which express APP and γ-secretase activity or transfected derivative cell lines that overexpress wild-type APP, mutant APP, or APP fusion proteins will secrete Aβ peptides into the culture media that can be quantified as previously outlined (Dovey, H., John, V. et al., J. Neurochem. 2001, 76, 173–181). The incubation of these cultured cells with γ-secretase inhibitors decreases the production of Aβ peptides. For instance, H4 cells stably transfected to overexpress the HPLAP-APP fusion protein described above were grown as above, detached, and adjusted to 2×10^5 cells/ml. 100 μl of the resulting suspension was then added to each well of a 96-well plate. After 4 hrs, the media was removed and replaced with 100 μl serum-free media containing various dilutions of the test compound. Plates were then incubated for 18 hrs at 37° C. and a 100 μl aliquot of the tissue culture supernatant was removed for determination of Aβ levels using time-resolved fluorescence of the homogenous sample as outlined above. Alternately, the other methods described above for Aβ determination could be used. The extent of Aβ inhibition was used to calculate the IC50 value for the test compound.
In Table 2, an inhibitory concentration (IC50) of less than or equal to 50 nM is represented by +++; between 50 nM and 500 nM by ++; between 500 nM and 50000 nM by +.

In the case of “(1S,2R)-2-[(4- Chlorobenzenesulfonyl)-[4-( -hydroxy-1-methyl-ethyl)-benzyl]-amino]-cyclohexanecarboxylic acid amide [Example 6]”, the IC50 is reported as no more than 50 nM.

Same assay, conditions: Homo sapiens; H4 cells overexpressing HPLAP-APP, 18 hrs at 37° C.

`COC(=O)c1ccc(CN([C@@H]2CCCC[C@@H]2C(N)=O)S(=O)(=O)c2ccc(Cl)cc2)cc1` [Example 1, 4-[[(1R,2S)-(2-Carbamoyl-cyclohexyl)-(4-chlorobenzenesulfonyl)-amino]-methyl]-benzoic acid methyl ester] and `CCNC(=O)c1ccc(CN([C@@H]2CCCC[C@@H]2C(N)=O)S(=O)(=O)c2ccc(Cl)cc2)cc1` [Example 2, 4-[[(1R,2S)-(2-Carbamoyl-cyclohexyl)-(4-chlorobenzenesulfonyl)-amino]-methyl]-N-ethyl-benzamide] cannot be ordered by IC50: no more than 50 nM for the first, no more than 50 nM for the second.

First: N#Cc1ccc(CN([C@H]2CCCCC[C@H]2C(N)=O)S(=O)(=O)c2ccc(Cl)cc2)cc1 (relative stereo) [Example 21, cis-2-[(4-Chlorobenzenesulfonyl)-(4-cyano-benzyl)-amino]-cycloheptanecarboxylic acid amide]
Second: CCNC(=O)c1ccc(CN([C@H]2CCCCC[C@H]2C(N)=O)S(=O)(=O)c2ccc(Cl)cc2)cc1 (relative stereo) [Example 24, cis-2-[(4-Chlorobenzenesulfonyl)-(4-ethylcarbamoyl-benzyl)-amino]-cycloheptanecarboxylic acid amide]
The IC50 of the first is higher: 500 to 50000 nM for the first, no more than 50 nM for the second.

`NC(=O)[C@@H]1CCCC[C@@H]1N(Cc1ccc(C(F)(F)F)cc1)S(=O)(=O)c1ccc(Cl)cc1` (relative stereo) [Example 10, cis-2-[(4-Chlorobenzenesulfonyl)-(4-trifluoromethyl-benzyl)-amino]-cyclohexanecarboxylic acid amide] and `NC(=O)[C@H]1CCCC[C@H]1N(Cc1ccc(SC(F)(F)F)cc1)S(=O)(=O)c1ccc(Cl)cc1` [Example 8, (1S,2R)-2-[(4-Chlorobenzenesulfonyl)-(4-trifluoromethylsulfanyl-benzyl)-amino]-cyclohexanecarboxylic acid amide] cannot be ordered by IC50: 50 to 500 nM for the first, no more than 50 nM for the second.

`NC(=O)[C@H]1CCCC[C@H]1N(Cc1ccc(Cl)s1)S(=O)(=O)c1ccc(Cl)cc1` [Example 7, (1S,2R)-2-[(4-Chlorobenzenesulfonyl)-(5-chloro-thiophen-2-ylmethyl)-amino]-cyclohexanecarboxylic acid amide] and `NC(=O)[C@H]1CCCC[C@H]1N(Cc1ccc(F)c(Cl)c1)S(=O)(=O)c1ccc(Cl)cc1` [Example 5, (1S,2R)-2-[(4-Chlorobenzenesulfonyl)-(3-chloro-4fluoro-benzyl)-amino]-cyclohexanecarboxylic acid amide] cannot be ordered by IC50: no more than 50 nM for the first, 50 to 500 nM for the second.

`CC(C)(C)c1ccc(CN([C@@H]2CCCC[C@@H]2C(N)=O)S(=O)(=O)c2ccc(Cl)cc2)cc1` [Example 3, (1S,2R)-2-[(4-tert-Butyl-benzyl)-(4-chlorobenzenesulfonyl)-amino]-cyclohexanecarboxylic acid amide] and `COC(=O)c1ccc(CN([C@@H]2CCCC[C@@H]2C(N)=O)S(=O)(=O)c2ccc(Cl)cc2)cc1` (relative stereo) [Example 13, cis-4-[[(2-Carbamoyl-cyclohexyl)-(4-chlorobenzenesulfonyl)-amino]-methyl]-benzoic acid methyl ester] cannot be ordered by IC50: 50 to 500 nM for the first, no more than 50 nM for the second.

Work on `NC(=O)[C@H]1CCCC[C@H]1N(Cc1ccc(OC(F)(F)F)c(Cl)c1)S(=O)(=O)c1ccc(Cl)cc1` [Example 4, (1S,2R)-2-[(4-Chlorobenzenesulfonyl)-(3-chloro-4-trifluoromethoxy-benzyl)-amino]-cyclohexanecarboxylic acid amide] yielded an IC50 of 50 to 500 nM.
